From article PMC10866072, “Design, synthesis, molecular modelling and biological evaluation of novel 6-amino-5-cyano-2-thiopyrimidine derivatives as potent anticancer agents against leukemia and apoptotic inducers” (Journal of Enzyme Inhibition and Medicinal Chemistry, 2024)

Legend:
CCRF-CEM = format: cell-based; conditions: Homo sapiens, one dose 10^-5 M, 48 h
HL-60(TB) = format: cell-based; conditions: Homo sapiens, one dose 10^-5 M, 48 h
K-562 = format: cell-based; conditions: Homo sapiens, K562, one dose 10^-5 M, 48 h
MOLT-4 = format: cell-based; conditions: Homo sapiens, one dose 10^-5 M, 48 h, read-out: % growth
RPMI-8226 = format: cell-based; conditions: Homo sapiens, one dose 10^-5 M, 48 h
SR = format: cell-based; conditions: Homo sapiens, one dose 10^-5 M, 48 h
A549/ATCC = format: cell-based; conditions: Homo sapiens, one dose 10^-5 M, 48 h
EKVX = format: cell-based; conditions: Homo sapiens, one dose 10^-5 M, 48 h
HOP-62 = format: cell-based; conditions: Homo sapiens, one dose 10^-5 M, 48 h
HOP-92 = format: cell-based; conditions: Homo sapiens, one dose 10^-5 M, 48 h
NCI-H226 = format: cell-based; conditions: Homo sapiens, one dose 10^-5 M, 48 h
NCI-H23 = format: cell-based; conditions: Homo sapiens, one dose 10^-5 M, 48 h, read-out: % growth
NCI-H460 = format: cell-based; conditions: Homo sapiens, one dose 10^-5 M, 48 h, read-out: % growth
NCI-H522 = format: cell-based; conditions: Homo sapiens, one dose 10^-5 M, 48 h
COLO 205 = format: cell-based; conditions: Homo sapiens, one dose 10^-5 M, 48 h
HCC-2998 = format: cell-based; conditions: Homo sapiens, one dose 10^-5 M, 48 h
HCT-116 = format: cell-based; conditions: Homo sapiens, one dose 10^-5 M, 48 h, read-out: % growth
HCT-15 = format: cell-based; conditions: Homo sapiens, one dose 10^-5 M, 48 h, read-out: % growth
HT29 = format: cell-based; conditions: Homo sapiens, HT-29, one dose 10^-5 M, 48 h
KM12 = format: cell-based; conditions: Homo sapiens, one dose 10^-5 M, 48 h
SW-620 = format: cell-based; conditions: Homo sapiens, one dose 10^-5 M, 48 h
SF-268 = format: cell-based; conditions: Homo sapiens, one dose 10^-5 M, 48 h, read-out: % growth
SF-295 = format: cell-based; conditions: Homo sapiens, one dose 10^-5 M, 48 h
SF-539 = format: cell-based; conditions: Homo sapiens, one dose 10^-5 M, 48 h
SNB-19 = format: cell-based; conditions: Homo sapiens, one dose 10^-5 M, 48 h, read-out: % growth
U251 = format: cell-based; conditions: Homo sapiens, U-251, one dose 10^-5 M, 48 h
LOX IMVI = format: cell-based; conditions: Homo sapiens, one dose 10^-5 M, 48 h, read-out: % growth
MALME-3M = format: cell-based; conditions: Homo sapiens, one dose 10^-5 M, 48 h
M14 = format: cell-based; conditions: Homo sapiens, one dose 10^-5 M, 48 h
MDA-MB-435 = format: cell-based; conditions: Homo sapiens, one dose 10^-5 M, 48 h, read-out: % growth
SK-MEL-2 = format: cell-based; conditions: Homo sapiens, one dose 10^-5 M, 48 h
SK-MEL-28 = format: cell-based; conditions: Homo sapiens, one dose 10^-5 M, 48 h
SK-MEL-5 = format: cell-based; conditions: Homo sapiens, one dose 10^-5 M, 48 h, read-out: % growth
UACC-257 = format: cell-based; conditions: Homo sapiens, one dose 10^-5 M, 48 h
UACC-62 = format: cell-based; conditions: Homo sapiens, one dose 10^-5 M, 48 h
IGROV1 = format: cell-based; conditions: Homo sapiens, IGROV-1, one dose 10^-5 M, 48 h, read-out: % growth
OVCAR-3 = format: cell-based; conditions: Homo sapiens, one dose 10^-5 M, 48 h
OVCAR-4 = format: cell-based; conditions: Homo sapiens, one dose 10^-5 M, 48 h
OVCAR-5 = format: cell-based; conditions: Homo sapiens, one dose 10^-5 M, 48 h
OVCAR-8 = format: cell-based; conditions: Homo sapiens, one dose 10^-5 M, 48 h
NCI/ADR-RES = format: cell-based; conditions: Homo sapiens, one dose 10^-5 M, 48 h
SK-OV-3 = format: cell-based; conditions: Homo sapiens, one dose 10^-5 M, 48 h
786-0 = format: cell-based; conditions: Homo sapiens, one dose 10^-5 M, 48 h
A498 = format: cell-based; conditions: Homo sapiens, one dose 10^-5 M, 48 h
ACHN = format: cell-based; conditions: Homo sapiens, one dose 10^-5 M, 48 h
CAKI-1 = format: cell-based; conditions: Homo sapiens, CAKI-1, 48 h, one dose 10^-5 M, 48 h
RXF 393 = format: cell-based; conditions: Homo sapiens, RXF 393, 48 h, one dose 10^-5 M, 48 h, read-out: % growth
SN12C = format: cell-based, human; conditions: Homo sapiens, one dose 10^-5 M, 48 h
TK-10 = format: cell-based; conditions: Homo sapiens, one dose 10^-5 M, 48 h
UO-31 = format: cell-based; conditions: Homo sapiens, UO-31, 48 h, one dose 10^-5 M, 48 h
PC-3 = format: cell-based; conditions: Homo sapiens, one dose 10^-5 M, 48 h
DU-145 = format: cell-based; conditions: Homo sapiens, one dose 10^-5 M, 48 h
MCF7 = format: cell-based; conditions: Homo sapiens, one dose 10^-5 M, 48 h, read-out: % growth
MDA-MB-231/ATCC = format: cell-based; conditions: Homo sapiens, one dose 10^-5 M, 48 h
HS 578T = format: cell-based; conditions: Homo sapiens; one dose 10^-5 M, 48 h; HS 578T; read-out: % growth
BT-549 = format: cell-based; conditions: Homo sapiens, one dose 10^-5 M, 48 h
T-47D = format: cell-based; conditions: Homo sapiens, T47D, one dose 10^-5 M, 48 h, read-out: % growth
MDA-MB-468 = format: cell-based; conditions: Homo sapiens, one dose 10^-5 M, 48 h
[1] = tested on: full NCI 60 cell lines panel; conditions: for activity at 10 µM: Homo sapiens, 60 cell, 48 h, read-out: Mean % growth

CN(C)c1ccc(-c2nc(S)nc(N)c2-c2ncn[nH]2)cc1 [Compound 5a, 4-Aamino-6-[4-(dimethylamino)phenyl]-5-(1H-1,2,4-triazol-5-yl)pyrimidine-2-thiol]
% cell growth at 10 µM (CCRF-CEM): 103% | % growth at 10 µM (HL-60(TB)): 84.4% | % growth at 10 µM (K-562): 89.8% | activity at 10 µM (MOLT-4): 100% | % growth at 10 µM (RPMI-8226): 109% | percent cell growth at 10 µM (SR): 85.7% | % growth at 10 µM (A549/ATCC): 108% | % cell growth at 10 µM (EKVX): 121% | % growth at 10 µM (HOP-62): 103% | % growth at 10 µM (HOP-92): 100% | % growth at 10 µM (NCI-H226): 110% | activity at 10 µM (NCI-H23): 108% | activity at 10 µM (NCI-H460): 111% | % growth at 10 µM (NCI-H522): 101% | % growth at 10 µM (COLO 205): 116% | % growth at 10 µM (HCC-2998): 112% | activity at 10 µM (HCT-116): 102% | activity at 10 µM (HCT-15): 116% | % growth at 10 µM (HT29): 111% | % growth at 10 µM (KM12): 105% | % growth at 10 µM (SW-620): 106% | activity at 10 µM (SF-268): 107% | % cell growth at 10 µM (SF-295): 104% | % growth at 10 µM (SF-539): 108% | activity at 10 µM (SNB-19): 102% | % growth at 10 µM (U251): 111% | activity at 10 µM (LOX IMVI): 109% | % growth at 10 µM (MALME-3M): 96.7% | % growth at 10 µM (M14): 105% | activity at 10 µM (MDA-MB-435): 113% | % growth at 10 µM (SK-MEL-2): 116% | % cell growth at 10 µM (SK-MEL-28): 119% | activity at 10 µM (SK-MEL-5): 108% | percent cell growth at 10 µM (UACC-257): 113% | % growth at 10 µM (UACC-62): 102% | activity at 10 µM (IGROV1): 109% | % growth at 10 µM (OVCAR-3): 111% | % growth at 10 µM (OVCAR-4): 115% | percent cell growth at 10 µM (OVCAR-5): 120% | % growth of cells at 10 µM (OVCAR-8): 113% | cell growth percent at 10 µM (NCI/ADR-RES): 115% | % growth at 10 µM (SK-OV-3): 103% | % growth at 10 µM (786-0): 96.3% | % growth at 10 µM (A498): 131% | % growth at 10 µM (ACHN): 119% | % growth at 10 µM (CAKI-1): 89.7% | activity at 10 µM (RXF 393): 113% | % growth at 10 µM (SN12C): 106% | % cell growth at 10 µM (TK-10): 117% | % cell growth at 10 µM (UO-31): 93.9% | percent cell growth at 10 µM (PC-3): 102% | % growth at 10 µM (DU-145): 115% | activity at 10 µM (MCF7): 96.6% | % growth at 10 µM (MDA-MB-231/ATCC): 107% | activity at 10 µM (HS 578T): 113% | % cell growth at 10 µM (BT-549): 98.1% | activity at 10 µM (T-47D): 109% | percent cell growth at 10 µM (MDA-MB-468): 110% | activity at 10 µM [1]: 107% | activity on all 60 cancer cell lines tested (in words) ([1]; one dose): weak activity

Nc1nc(S)nc(-c2ccc(Cl)cc2Cl)c1-c1ncn[nH]1 [Compound 5c, 4-Amino-6–(2,4-dichlorophenyl)-5-(1H-1,2,4-triazol-5-yl)pyrimidine-2-thiol]
% cell growth at 10 µM (CCRF-CEM): 92.7% | % growth at 10 µM (HL-60(TB)): 70.9% | % growth at 10 µM (K-562): 98% | activity at 10 µM (MOLT-4): 91.4% | % growth at 10 µM (RPMI-8226): 103% | percent cell growth at 10 µM (SR): 83.2% | % growth at 10 µM (A549/ATCC): 102% | % cell growth at 10 µM (EKVX): 50% | % growth at 10 µM (HOP-62): 93.9% | % growth at 10 µM (HOP-92): 106% | % growth at 10 µM (NCI-H226): 110% | activity at 10 µM (NCI-H23): 105% | activity at 10 µM (NCI-H460): 108% | % growth at 10 µM (NCI-H522): 88.8% | % growth at 10 µM (COLO 205): 104% | % growth at 10 µM (HCC-2998): 105% | activity at 10 µM (HCT-116): 97.8% | activity at 10 µM (HCT-15): 102% | % growth at 10 µM (HT29): 102% | % growth at 10 µM (KM12): 103% | % growth at 10 µM (SW-620): 102% | activity at 10 µM (SF-268): 101% | % cell growth at 10 µM (SF-295): 100% | % growth at 10 µM (SF-539): 101% | activity at 10 µM (SNB-19): 97.1% | % growth at 10 µM (U251): 105% | activity at 10 µM (LOX IMVI): 104% | % growth at 10 µM (MALME-3M): 98.2% | % growth at 10 µM (M14): 98.7% | activity at 10 µM (MDA-MB-435): 105% | % growth at 10 µM (SK-MEL-2): 104% | % cell growth at 10 µM (SK-MEL-28): 115% | activity at 10 µM (SK-MEL-5): 94.8% | percent cell growth at 10 µM (UACC-257): 112% | % growth at 10 µM (UACC-62): 95.3% | activity at 10 µM (IGROV1): 102% | % growth at 10 µM (OVCAR-3): 109% | % growth at 10 µM (OVCAR-4): 105% | percent cell growth at 10 µM (OVCAR-5): 107% | % growth of cells at 10 µM (OVCAR-8): 103% | cell growth percent at 10 µM (NCI/ADR-RES): 106% | % growth at 10 µM (SK-OV-3): 94.2% | % growth at 10 µM (786-0): 90.7% | % growth at 10 µM (A498): 120% | % growth at 10 µM (ACHN): 109% | % growth at 10 µM (CAKI-1): 90.8% | activity at 10 µM (RXF 393): 110% | % growth at 10 µM (SN12C): 107% | % cell growth at 10 µM (TK-10): 114% | % cell growth at 10 µM (UO-31): 89.9% | percent cell growth at 10 µM (PC-3): 95.8% | % growth at 10 µM (DU-145): 112% | activity at 10 µM (MCF7): 94.1% | % growth at 10 µM (MDA-MB-231/ATCC): 104% | activity at 10 µM (HS 578T): 98.6% | % cell growth at 10 µM (BT-549): 97.3% | activity at 10 µM (T-47D): 106% | percent cell growth at 10 µM (MDA-MB-468): 104% | activity at 10 µM [1]: 100%
